Key:
[1] = biological target: T1, 11 βHSD2 (Homo sapiens, UniProt P80365); assay type: biochemical; conditions: substrate Km, double reciprocal plot, homogenates of pHSD2 transfected CHOP cells, 37° C., mean±SD, n=3
T1 sequence (P80365 1-405 V148L): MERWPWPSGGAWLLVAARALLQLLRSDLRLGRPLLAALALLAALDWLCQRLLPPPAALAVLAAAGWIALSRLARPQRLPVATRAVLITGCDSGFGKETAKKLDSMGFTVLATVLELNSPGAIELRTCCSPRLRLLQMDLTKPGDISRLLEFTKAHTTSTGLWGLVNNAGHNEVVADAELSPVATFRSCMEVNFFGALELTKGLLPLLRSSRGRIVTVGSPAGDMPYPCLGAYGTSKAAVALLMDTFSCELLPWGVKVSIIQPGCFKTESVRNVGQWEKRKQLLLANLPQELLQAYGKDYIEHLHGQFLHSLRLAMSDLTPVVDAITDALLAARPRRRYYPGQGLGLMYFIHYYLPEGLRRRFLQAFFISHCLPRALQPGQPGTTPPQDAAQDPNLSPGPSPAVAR
From the text: The efficiency of the dehydrogenase may be further increased by mechanisms such as intracellular compartmentalisation of the enzyme.

[2] = biological target: T1, 11 βHSD2; assay: Directionality and end-product inhibition in intact pHSD2 transfected CHOP cells; assay type: cell-based; conditions: monolayer cultures, 1.5 hours at 37° C., labelled substrate, TLC of culture medium
Protocol: To determine directionality and extent of end production inhibition of the enzyme encoded by pHSD2, monolayer cultures of transfected CHOP cells were incubated for 1.5 hours at 37° C. with 1-2 nM labelled substrates plus 10 nM corresponding unlabelled 11-dehydro metabolite (FIG. 2b). The culture medium was then removed, extracted and assayed by TLC for the presence of the 11-dehydro metabolite.

[3] = biological target: T1, 11 βHSD2; assay: Cofactor specificity of glucocorticoid metabolism in homogenates of pHSD2 transfected CHOP cells; assay type: biochemical; conditions: 1 mM NAD+ or 1 mM NADP+, 1-2 nM tritiated plus 10 nM unlabelled substrate, 37° C., 40 minutes, TLC
Protocol: CHOP cells were transfected with plasmid pHSD2, which contains an insert encoding 11 βHSD2. After 60 hours incubation in 85 mm plates, cellular homogenates were prepared and assayed for their ability to metabolise glucocorticoid substrates in the presence of 1 mM NAD+, or 1 mM NADP+. Confluent cells were homogenised in 1 ml of homogenisation buffer (0.25M sucrose, 10 MM phosphate, pH 7). Reaction mixtures (500 μl) contained either 40 μl of homogenate plus [^3 H]corticosterone, or 80 μl of homogenate plus [^3 H]cortisol, or 120 μl of homogenate plus [^3 H]dexamethasone, in homogenisation buffer. All reactions contained 1-2 nM tritiated glucocorticoid substrate plus 10 nM unlabelled glucocorticoid substrate. Reaction mixtures were incubated at 37° C. for 40 minutes and steroid metabolites were assayed by thin layer chromatography.

C[C@]12CCC(=O)C=C1CC[C@@H]1[C@@H]2[C@@H](O)C[C@@]2(C)[C@H]1CC[C@]2(O)C(=O)CO [cortisol]
Km [1]: 0.047 ± 0.0018 µM
metabolite formation by intact transfected CHOP cells [2]: converted
glucocorticoid metabolism to 11-dehydro metabolite, cofactor dependence [3]: only showed significant glucocorticoid metabolism when NAD+, but not NADP+, was included as a cofactor

C[C@@H]1C[C@H]2[C@@H]3CCC4=CC(=O)C=C[C@]4(C)[C@@]3(F)[C@@H](O)C[C@]2(C)[C@@]1(O)C(=O)CO [dexamethasone]
glucocorticoid metabolism to 11-dehydro metabolite, cofactor dependence [3]: only showed significant glucocorticoid metabolism when NAD+, but not NADP+, was included as a cofactor

C[C@]12C[C@H](O)[C@H]3[C@@H](CCC4=CC(=O)CC[C@@]43C)[C@@H]1CC[C@@H]2C(=O)CO [corticosterone]
Km [1]: 0.0044 ± 0.0012 µM
metabolite formation by intact transfected CHOP cells [2]: converted
glucocorticoid metabolism to 11-dehydro metabolite, cofactor dependence [3]: only showed significant glucocorticoid metabolism when NAD+, but not NADP+, was included as a cofactor

C[C@]12CCC(=O)C=C1CC[C@@H]1[C@@H]2C(=O)C[C@@]2(C)[C@H]1CC[C@]2(O)C(=O)CO [cortisone]
metabolite formation by intact transfected CHOP cells [2]: no metabolite formed

C[C@]12CC(=O)[C@H]3[C@@H](CCC4=CC(=O)CC[C@@]43C)[C@@H]1CC[C@@H]2C(=O)CO [11-dehydro corticosterone]
metabolite formation by intact transfected CHOP cells [2]: no metabolite formed
